Data on 30 compounds can be found in patent US11786528B2, “Pyrazolopyrimidine compounds as adenosine receptor antagonists” (EXSCIENTIA LTD., priority 2018, dated 2023).

Test [1] concerns the target human adenosine receptor sub-type A2a (wild type) (Homo sapiens (Human), UniProt P29274). As to the kind of experiment: Affinity for human adenosine A2a receptor by surface plasmon resonance (SPR). Format: binding. As to the method:
(§1) Affinity for the human adenosine receptor sub-types (A2a, A2b, A1 and A3) was determined by surface plasmon resonance (SPR) using published methodologies (see below for further details).
(§2) Affinity for the human adenosine receptor sub-types (A2a, A2b, A1 and A3) was determined by SPR as described in Aristotelous, T., et al, Methods in Enzymology (2015), Volume 556, Chapter 23, pages 499-525 and Congreve, M., et al, J Med Chem (2012), Vol. 55, pages 1898-1903. The method used was analogous to the method used in Congreve, M., et al (see supplementary page S10) for the A2a receptor, but the wild type receptor was used rather than the proprietary StaR form.
Background: In SPR one partner is held on a chip, and binding of the other changes the refractive index at the surface.

Test [2] deals with human A2a receptors (HEK 293 transfected) (Homo sapiens (Human), UniProt P29274). As to the kind of experiment: Inhibition of cAMP release in HEK-A2aR cells (HTRF, LANCE Ultra cAMP). In kind it is cell-based. The following applies: 3 nM NECA, 10 min. As to the method: Functional activity was measured by inhibition of cAMP release in HEK cells (see below for further details).
To screen A2a receptor inhibitors by HTRF technology, about 500 HEK-A2aR cells (HEK 293 transfected with human A2a receptors) were treated with inhibitors in presence of stimulation buffer (1×HBSS, 5 mM HEPES, 0.1% BSA stabilizer, pH 7.4) supplemented with 30 μM phosphodiesterase inhibitor Rolipram (to prevent cAMP degradation). This stimulation was immediately followed by treatment with 3 nM standard A2aR agonist (NECA) for 10 min under gentle shaking at room temperature. After that, inhibition of cAMP release was determined directly using LANCE Ultra cAMP assay (Perkin Elmer TRF0263).
All analysis was performed using GraphPad Prism 7.0 (GraphPad Software, San Diego, USA). Results are given, as EC50 (M).
(In general: Time-resolved FRET reads energy transfer from a long-lived donor to a nearby acceptor.)

For test [3], the target named is human adenosine receptor sub-type A2b (Homo sapiens (Human), UniProt P29275). As to the kind of experiment: Affinity for human adenosine A2b receptor by SPR. In kind it is binding. As for the experimental part:
as §1, §2

Test [4] concerns the target human adenosine receptor sub-type A1 (Homo sapiens (Human), UniProt P30542). Nature of the test: Affinity for human adenosine A1 receptor by SPR. Format: binding. As to the method: as §1, §2
In test [5] the target is human adenosine receptor sub-type A3 (Homo sapiens (Human), UniProt P0DMS8). Nature of the test: Affinity for human adenosine A3 receptor by SPR. In kind it is binding. As to the method: as §1, §2
The mark [6] stands for this setting: from SPR IC50 values, rounded to 2 significant figures.

Some results are limits rather than exact numbers.

Sequence of human A2a receptors (HEK 293 transfected) (P29274 whole entry): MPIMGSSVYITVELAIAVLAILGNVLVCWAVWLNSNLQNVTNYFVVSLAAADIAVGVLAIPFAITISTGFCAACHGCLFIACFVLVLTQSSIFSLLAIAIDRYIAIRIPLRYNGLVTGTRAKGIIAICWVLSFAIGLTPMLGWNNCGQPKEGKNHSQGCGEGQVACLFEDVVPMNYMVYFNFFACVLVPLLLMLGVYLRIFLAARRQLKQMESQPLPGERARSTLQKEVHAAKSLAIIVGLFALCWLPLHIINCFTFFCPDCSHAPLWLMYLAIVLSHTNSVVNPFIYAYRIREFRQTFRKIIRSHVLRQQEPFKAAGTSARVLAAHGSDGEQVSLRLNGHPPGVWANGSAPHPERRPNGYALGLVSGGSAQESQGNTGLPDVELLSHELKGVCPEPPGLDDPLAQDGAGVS
Sequence of human adenosine receptor sub-type A2a (wild type) (P29274 whole entry): as above
Sequence of human adenosine receptor sub-type A2b (P29275 whole entry): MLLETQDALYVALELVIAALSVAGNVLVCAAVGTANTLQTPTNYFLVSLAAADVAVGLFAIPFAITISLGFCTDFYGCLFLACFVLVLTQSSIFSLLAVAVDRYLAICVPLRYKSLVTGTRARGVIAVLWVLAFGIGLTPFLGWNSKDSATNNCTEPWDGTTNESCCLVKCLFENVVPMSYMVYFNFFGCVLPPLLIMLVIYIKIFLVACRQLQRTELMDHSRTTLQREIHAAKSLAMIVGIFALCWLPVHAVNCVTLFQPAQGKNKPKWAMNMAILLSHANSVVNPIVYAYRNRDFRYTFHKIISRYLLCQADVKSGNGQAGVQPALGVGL
Sequence of human adenosine receptor sub-type A3 (P0DMS8 whole entry): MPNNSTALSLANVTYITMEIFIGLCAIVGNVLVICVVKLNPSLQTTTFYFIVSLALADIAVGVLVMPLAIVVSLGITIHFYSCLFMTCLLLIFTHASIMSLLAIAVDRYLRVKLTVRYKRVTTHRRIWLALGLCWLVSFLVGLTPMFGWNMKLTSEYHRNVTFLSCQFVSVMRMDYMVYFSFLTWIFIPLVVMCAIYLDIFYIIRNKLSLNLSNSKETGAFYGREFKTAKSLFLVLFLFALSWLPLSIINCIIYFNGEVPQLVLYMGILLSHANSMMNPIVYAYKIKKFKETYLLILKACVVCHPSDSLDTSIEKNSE
Sequence of human adenosine receptor sub-type A1 (P30542 whole entry): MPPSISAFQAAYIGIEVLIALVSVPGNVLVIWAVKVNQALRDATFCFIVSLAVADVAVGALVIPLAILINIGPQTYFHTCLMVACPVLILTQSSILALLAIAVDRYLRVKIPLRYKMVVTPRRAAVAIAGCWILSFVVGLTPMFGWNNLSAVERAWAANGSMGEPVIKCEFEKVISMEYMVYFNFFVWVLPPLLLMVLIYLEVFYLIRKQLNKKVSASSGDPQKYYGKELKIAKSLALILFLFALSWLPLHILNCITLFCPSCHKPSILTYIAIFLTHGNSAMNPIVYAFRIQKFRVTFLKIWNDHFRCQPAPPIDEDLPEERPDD

In test [1], `COc1cccc(Cn2cc3c(N)nc(-c4cnccn4)nc3n2)c1` [Example 2, 2-[(3-methoxyphenyl)methyl]-6-(pyrazin-2-yl)-2H-pyrazolo[3,4-d]pyrimidin-4-amine] displayed an IC50 of 6.7 nM. The EC50 in test [2] was determined as 1530 nM. The compound `Nc1nc(-c2cnccn2)nc2nn(Cc3cccc(O)c3)cc12` [Example 3, 3-{[4-amino-6-(pyrazin-2-yl)-2H-pyrazolo[3,4-d]pyrimidin-2-yl]methyl}phenol] displayed an IC50 in test [1] of 41 nM. Regarding `COc1cccc(Cn2cc3c(N)nc(-c4ncco4)nc3n2)c1` [Example 4, 2-[(3-methoxyphenyl)methyl]-6-(1,3-oxazol-2-yl)-2H-pyrazolo[3,4-d]pyrimidin-4-amine], the IC50 in test [1] is 4.9 nM. This compound also displayed an EC50 in test [2] of 400 nM. Turning to `COc1cccc(Cn2cc3c(N)nc(-c4nc(C)cs4)nc3n2)c1` [Example 5, 2-[(3-methoxyphenyl)methyl]-6-(4-methyl-1,3-thiazol-2-yl)-2H-pyrazolo[3,4-d]pyrimidin-4-amine], the IC50 in test [1] worked out at 47 nM. On the same count and under the same terms, with `COc1cccc(Cn2cc3c(N)nc(-c4cc(C)no4)nc3n2)c1` [Example 6, 2-[(3-methoxyphenyl)methyl]-6-(3-methyl-1,2-oxazol-5-yl)-2H-pyrazolo[3,4-d]pyrimidin-4-amine] the figure was 162 nM.

For the compound `COc1cccc(Cn2cc3c(N)nc(-c4snnc4C)nc3n2)c1` [Example 7, 2-[(3-methoxyphenyl)methyl]-6-(4-methyl-1,2,3-thiadiazol-5-yl)-2H-pyrazolo[3,4-d]pyrimidin-4-amine], the IC50 in test [1] amounted to 24 nM.

In the case of `COc1cccc(Cn2cc3c(N)nc(-c4cscn4)nc3n2)c1` [Example 9, 2-[(3-methoxyphenyl)methyl]-6-(1,3-thiazol-4-yl)-2H-pyrazolo[3,4-d]pyrimidin-4-amine], the midpoint of inhibition in test [1], the IC50, lay at 41 nM. Also, the EC50 in test [2] amounted to 875 nM. Taken in the same sequence, the figures for `Cc1ccc(Cn2cc3c(N)nc(-c4ccsn4)nc3n2)cc1` [Example 13, 2-[(4-methylphenyl)methyl]-6-(1,2-thiazol-3-yl)-2H-pyrazolo[3,4-d]pyrimidin-4-amine] were 15 nM and 128 nM. In test [1], `Cc1ccc(Cn2cc3c(N)nc(-c4nccs4)nc3n2)cc1` [Example 14, 2-[(4-methylphenyl)methyl]-6-(1,3-thiazol-2-yl)-2H-pyrazolo[3,4-d]pyrimidin-4-amine] gave an IC50 of 14 nM. Besides, in test [2], the EC50 was determined as 54 nM.

`COc1ccc(Cn2cc3c(N)nc(-c4cnccn4)nc3n2)cc1` [Example 15, 2-[(4-methoxyphenyl)methyl]-6-(pyrazin-2-yl)-2H-pyrazolo[3,4-d]pyrimidin-4-amine] showed an IC50 in test [1] of 253 nM. In other words, the sub-micromolar range. With `Nc1nc(-c2ccsn2)nc2nn(Cc3cccc(OC(F)(F)F)c3)cc12` [Example 16, 6-(1,2-thiazol-3-yl)-2-{[3-(trifluoromethoxy)phenyl]methyl}-2H-pyrazolo[3,4-d]pyrimidin-4-amine], the IC50 in test [1] worked out at 8.3 nM. Also, the EC50 in test [2] stood at 9 nM. Consider `Nc1nc(-c2ccsn2)nc2nn(Cc3ccc(C(F)(F)F)cc3)cc12` [Example 17, 6-(1,2-thiazol-3-yl)-2-{[4-(trifluoromethyl)phenyl]methyl}-2H-pyrazolo[3,4-d]pyrimidin-4-amine], for which half-maximal inhibition in test [1] (IC50) was put at 54 nM. In test [2], this compound returned a half-maximal effective concentration (EC50) of 226 nM. In test [1], `COc1cc(Cn2cc3c(N)nc(-c4ccsn4)nc3n2)ccc1C` [Example 18, 2-[(3-methoxy-4-methylphenyl)methyl]-6-(1,2-thiazol-3-yl)-2H-pyrazolo[3,4-d]pyrimidin-4-amine] gave an IC50 of 18 nM. The compound further yielded a half-maximal effective concentration (EC50) in test [2] of 218 nM. In test [1], `Nc1nc(-c2ccsn2)nc2nn(Cc3cc(Cl)ccc3Cl)cc12` [Example 20, 2-[(2,5-dichlorophenyl)methyl]-6-(1,2-thiazol-3-yl)-2H-pyrazolo[3,4-d]pyrimidin-4-amine] registered an IC50 of 13 nM. The EC50 in test [2] was found to be 145 nM. For `Cc1ccc(Cn2cc3c(N)nc(-c4ccsn4)nc3n2)cc1C` [Example 21, 2-[(3,4-dimethylphenyl)methyl]-6-(1,2-thiazol-3-yl)-2H-pyrazolo[3,4-d]pyrimidin-4-amine], in that order: 5 nM and 4 nM. `Nc1nc(-c2ccsn2)nc2nn(Cc3ccccn3)cc12` [Example 22, 2-[(pyridin-2-yl)methyl]-6-(1,2-thiazol-3-yl)-2H-pyrazolo[3,4-d]pyrimidin-4-amine] showed an IC50 in test [1] of 27 nM.

Consider `Cc1ccc(Cn2cc3c(N)nc(-c4ccsn4)nc3n2)cn1` [Example 23, 2-[(6-methylpyridin-3-yl)methyl]-6-(1,2-thiazol-3-yl)-2H-pyrazolo[3,4-d]pyrimidin-4-amine], for which it took 29 nM to reach half-maximal inhibition in test [1] (IC50). For `COc1cc(C)ccc1Cn1cc2c(N)nc(-c3ccsn3)nc2n1` [Example 25, 2-[(2-methoxy-4-methylphenyl)methyl]-6-(1,2-thiazol-3-yl)-2H-pyrazolo[3,4-d]pyrimidin-4-amine], in test [1], it took 18 nM to reach half-maximal inhibition (IC50). The compound also had an EC50 in test [2] of 407 nM. For `Cc1cccc(Cn2cc3c(N)nc(-c4ncco4)nc3n2)c1` [Example 26, 2-[(3-methylphenyl)methyl]-6-(1,3-oxazol-2-yl)-2H-pyrazolo[3,4-d]pyrimidin-4-amine], in that order: 2.8 nM and 123 nM. For `Nc1nc(-c2cnccn2)nc2nn(Cc3cccc(C(F)(F)F)c3)cc12` [Example 28, 6-(pyrazin-2-yl)-2-{[3-(trifluoromethyl)phenyl]methyl}-2H-pyrazolo[3,4-d]pyrimidin-4-amine], in that order: 3.2 nM and 13 nM. `Nc1nc(-c2ccsn2)nc2nn(Cc3cccc(F)c3)cc12` [Example 29, 2-[(3-fluorophenyl)methyl]-6-(1,2-thiazol-3-yl)-2H-pyrazolo[3,4-d]pyrimidin-4-amine]: the IC50 in test [1] came out at 15 nM. In addition, the EC50 in test [2] stood at 118 nM. Taken in the same sequence, the figures for `Nc1nc(-c2cnccn2)nc2nn(Cc3cccc(F)c3)cc12` [Example 30, 2-[(3-fluorophenyl)methyl]-6-(pyrazin-2-yl)-2H-pyrazolo[3,4-d]pyrimidin-4-amine] were 8 nM and 232 nM. Taken in the same sequence, the figures for `Cc1ccccc1Cn1cc2c(N)nc(-c3cnccn3)nc2n1` [Example 31, 2-[(2-methylphenyl)methyl]-6-(pyrazin-2-yl)-2H-pyrazolo[3,4-d]pyrimidin-4-amine] were 5.7 nM and 56 nM. Taken in the same sequence, the figures for `Cc1ccccc1Cn1cc2c(N)nc(-c3ccsn3)nc2n1` [Example 32, 2-[(2-methylphenyl)methyl]-6-(1,2-thiazol-3-yl)-2H-pyrazolo[3,4-d]pyrimidin-4-amine] were 10 nM and 14 nM.

Take `Nc1nc(-c2nccs2)nc2nn(Cc3nccs3)cc12` [Example 33, 6-(1,3-thiazol-2-yl)-2-[(1,3-thiazol-2-yl)methyl]-2H-pyrazolo[3,4-d]pyrimidin-4-amine]: the IC50 in test [1] worked out at 27 nM. Further, the EC50 in test [2] stood at 2160 nM. The compound `Nc1nc(-c2ccsn2)nc2nn(Cc3nccs3)cc12` [Example 34, 2-[(1,3-thiazol-2-yl)methyl]-6-(1,2-thiazol-3-yl)-2H-pyrazolo[3,4-d]pyrimidin-4-amine] gave a concentration for half-maximal inhibition (IC50) in test [1] of 67 nM. As to `Nc1nc(-c2cnccn2)nc2nn(Cc3cccc(Cl)c3)cc12` [Example 36, 2-[(3-chlorophenyl)methyl]-6-(pyrazin-2-yl)-2H-pyrazolo[3,4-d]pyrimidin-4-amine], in test [1], the IC50 amounted to 1.5 nM. This compound gave an EC50 in test [2] of 30 nM. Taken in the same sequence, the figures for `COc1ccccc1Cn1cc2c(N)nc(-c3ncco3)nc2n1` [Example 39, 2-[(2-methoxyphenyl)methyl]-6-(1,3-oxazol-2-yl)-2H-pyrazolo[3,4-d]pyrimidin-4-amine] were 4.3 nM and 213 nM. Turning to `Nc1nc(-c2ccsn2)nc2nn(Cc3cccc(O)c3)cc12` [Example 42, 3-{[4-amino-6-(1,2-thiazol-3-yl)-2H-pyrazolo[3,4-d]pyrimidin-2-yl]methyl}phenol], in test [1], the midpoint of inhibition, the IC50, lay at 61 nM. This lies in the double-digit nanomolar range.

Take `Nc1nc(-c2ccsn2)nc2nn(Cc3cccc(CO)c3)cc12` [Example 46, [3-[(4-amino-6-(1,2-thiazol-3-yl)-pyrazolo[3,4-d]pyrimidin-2-yl)methyl]phenyl]methanol]: the IC50 was 37 nM in test [1]; over 100000 nM in test [3] (SPR, human A2b receptor); over 100000 nM in test [4] (SPR, human A1 receptor); over 100000 nM in test [5] (SPR, human A3 receptor). Besides, in test [3] (setting [6]), the “Relative selectivity for A2a v. A2b” value is over 2700. Besides, the “Relative selectivity for A2a v. A1” value in test [4] (setting [6]) is reported as over 2700. Also, the “Relative selectivity for A2a v. A3” value in test [5] (setting [6]) is over 2700.

The IC50 is the concentration that gives 50% inhibition. The term EC50 denotes the midpoint of the concentration-response curve. A lower EC50 goes with greater potency.
